Biological target: DOR (Mus musculus, UniProt P32300)
Assay: Radioligand competition binding assay, DOR

DOR, sequence (P32300 whole entry): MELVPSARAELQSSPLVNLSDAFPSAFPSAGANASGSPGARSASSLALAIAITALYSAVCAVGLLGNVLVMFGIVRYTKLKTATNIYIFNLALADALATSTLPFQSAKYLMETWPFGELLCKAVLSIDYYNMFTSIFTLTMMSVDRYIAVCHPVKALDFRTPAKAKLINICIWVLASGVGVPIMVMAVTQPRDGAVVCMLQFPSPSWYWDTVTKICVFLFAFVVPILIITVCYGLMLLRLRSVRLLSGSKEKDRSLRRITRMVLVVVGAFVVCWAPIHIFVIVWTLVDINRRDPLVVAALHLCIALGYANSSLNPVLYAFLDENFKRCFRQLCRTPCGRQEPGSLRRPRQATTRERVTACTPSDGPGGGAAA

SMILES | Ki [nM]
O=C(N[C@@H]1CC[C@@]2(O)[C@H]3Cc4ccc(O)c5c4[C@@]2(CCN3CC2CC2)[C@H]1O5)c1cccc2cc(Br)[nH]c12 [Compound 1, 17-Cyclopropylmethyl-3,14β-dihydroxy-4,5α-epoxy-6β-(2-bromo-indole-7-carboxamido)morphinan] | 3.04 ± 0.27
O=C(N[C@@H]1CC[C@@]2(O)[C@H]3Cc4ccc(O)c5c4[C@@]2(CCN3CC2CC2)[C@H]1O5)c1cccc2cc(Cl)[nH]c12 [Compound 2, 17-Cyclopropylmethyl-3,14β-dihydroxy-4,5α-epoxy-6β-(2-chloro-indole-7-carboxamido)morphinan] | 2.42 ± 0.44
N#Cc1cc2cccc(C(=O)N[C@@H]3CC[C@@]4(O)[C@H]5Cc6ccc(O)c7c6[C@@]4(CCN5CC4CC4)[C@H]3O7)c2[nH]1 [Compound 3, 17-Cyclopropylmethyl-3,14β-dihydroxy-4,5α-epoxy-6β-(2-cyano-indole-7-carboxamido)morphinan] | 12 ± 0.62
Cc1cc2cccc(C(=O)N[C@@H]3CC[C@@]4(O)[C@H]5Cc6ccc(O)c7c6[C@@]4(CCN5CC4CC4)[C@H]3O7)c2[nH]1 [Compound 4, 17-Cyclopropylmethyl-3,14β-dihydroxy-4,5α-epoxy-6β-(2-methyl-indole-7-carboxamido)morphinan] | 15.9 ± 0.38
O=C(N[C@@H]1CC[C@@]2(O)[C@H]3Cc4ccc(O)c5c4[C@@]2(CCN3CC2CC2)[C@H]1O5)c1cccc2cc(-c3ccccc3)[nH]c12 [Compound 5, 17-Cyclopropylmethyl-3,14β-dihydroxy-4,5α-epoxy-6β-(2-phenyl-indole-7-carboxamido)morphinan] | 23.8 ± 3.96
O=C(N[C@@H]1CC[C@@]2(O)[C@H]3Cc4ccc(O)c5c4[C@@]2(CCN3CC2CC2)[C@H]1O5)c1cccc2c(Br)c[nH]c12 [Compound 6, 17-Cyclopropylmethyl-3,14β-dihydroxy-4,5α-epoxy-6β-(3-bromo-indole-7-carboxamido)morphinan] | 11.6 ± 2.68
N#Cc1c[nH]c2c(C(=O)N[C@@H]3CC[C@@]4(O)[C@H]5Cc6ccc(O)c7c6[C@@]4(CCN5CC4CC4)[C@H]3O7)cccc12 [Compound 8, 17-Cyclopropylmethyl-3,14β-dihydroxy-4,5α-epoxy-6β-(3-cyano-indole-7-carboxamido)morphinan] | 25.4 ± 3.39
CC(=O)Nc1c[nH]c2c(C(=O)N[C@@H]3CC[C@@]4(O)[C@H]5Cc6ccc(O)c7c6[C@@]4(CCN5CC4CC4)[C@H]3O7)cccc12 [Compound 12, 17-Cyclopropylmethyl-3,14β-dihydroxy-4,5α-epoxy-6β-(3-acet-amido-indole-7-carboxamido)morphinan] | 31 ± 4.96
CC(C)c1c[nH]c2c(C(=O)N[C@@H]3CC[C@@]4(O)[C@H]5Cc6ccc(O)c7c6[C@@]4(CCN5CC4CC4)[C@H]3O7)cccc12 [Compound 14, 17-Cyclopropylmethyl-3,14β-dihydroxy-4,5α-epoxy-6β-(3-iso-propyl-indole-7-carboxamido)morphinan] | 19.8 ± 2.72
O=C(N[C@@H]1CC[C@@]2(O)[C@H]3Cc4ccc(O)c5c4[C@@]2(CCN3CC2CC2)[C@H]1O5)c1cccc2c(C3CCCCC3)c[nH]c12 [Compound 16, 17-Cyclopropylmethyl-3,14β-dihydroxy-4,5α-epoxy-6β-(3-cyclo-hexyl-indole-7-carboxamido)morphinan] | 64 ± 1.99
O=C(N[C@@H]1CC[C@@]2(O)[C@H]3Cc4ccc(O)c5c4[C@@]2(CCN3CC2CC2)[C@H]1O5)c1cccc2c(-c3ccccc3)c[nH]c12 [Compound 17, 17-Cyclopropylmethyl-3,14β-dihydroxy-4,5α-epoxy-6β-(3-phenyl-indole-7-carboxamido)morphinan] | 49.3 ± 10.1
O=C(N[C@H]1CC[C@@]2(O)[C@H]3Cc4ccc(O)c5c4[C@@]2(CCN3CC2CC2)[C@H]1O5)c1cccc2cc(Cl)[nH]c12 [Compound 19, 17-Cyclopropylmethyl-3,14β-dihydroxy-4,5α-epoxy-6α-(2-chloro-indole-7-carboxamido)morphinan] | 1.82 ± 0.06

From paper PMC10546487 (Journal of medicinal chemistry, 2022)
